# Test results: article PMC11054727 (Viruses, 2024)
# Target: trimeric construct of the SARS-CoV-2 S2 segment (Severe acute respiratory syndrome coronavirus 2, UniProt P0DTC2, A892P/A899P/A942P/F817P/K986P/V987P)
# Type: binding
substance,measurement,value
Ivermectin,binding to S2,did not show any binding
